According to patent US9955691B2, “Macrocyclic picolinamides as fungicides” (DOW AGROSCIENCES LLC, priority 2014, dated 2018):
Like-named read-outs stand apart in the source and are kept apart here.

What was measured:
[1] = test system: Mycosphaerella graminicola; Anamorph: Septoria tritici; assay: Fungicidal activity: Leaf Blotch of Wheat (SEPTTR); assay type: in vivo; settings: Zymoseptoria tritici, wheat leaf blotch; for pest or weed control at 100 µg/mL: High Volume (100 ppm); for pest or weed control at 121.5 g/ha: Low Volume (121.5 g/H)
How it was run: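 Compounds were dissolved in acetone, diluted with nine volumes of water containing 110 ppm Triton X-100, and sprayed to run-off on first-leaf Yuma wheat seedlings inoculated with Septoria tritici spores before or after treatment. Plants were held in a dew chamber, then a 20° C. greenhouse. Percent control was derived from disease severity relative to untreated plants.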

Puccinia triticina = assay: Fungicidal activity: Wheat Brown Rust (PUCCRT); assay type: in vivo; settings: for pest or weed control at 100 µg/mL: High Volume (100 ppm); for pest or weed control at 121.5 g/ha: Low Volume (121.5 g/H)
How it was run: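 Percent control of brown rust was derived from 0-100% severity on treated versus untreated first leaves. Yuma wheat seedlings were spray-treated to run-off (acetone/water, Triton X-100) and inoculated with P. triticina spores before or after treatment, then held overnight in dark dew at 22° C and moved to a 24° C greenhouse.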

[2] = 24 h, 1 Day Protectant, read-out: SEPTTR 1 DP disease control
[3] = 72 h, 3 Day Curative, read-out: SEPTTR 3 DC disease control
[4] = 24 h, 1 Day Protectant, read-out: PUCCRT 1 DP disease control
[5] = 72 h, 3 Day Curative, read-out: PUCCRT 3 DC disease control

SMILES	pest or weed control at 100 µg/mL [1, 2] [%]	pest or weed control at 100 µg/mL [1, 3] [%]	pest or weed control at 100 µg/mL (Puccinia triticina; [4]) [%]	pest or weed control at 100 µg/mL (Puccinia triticina; [5]) [%]	melting point [°C]	pest or weed control at 121.5 g/ha [1, 2] [%]	pest or weed control at 121.5 g/ha [1, 3] [%]	pest or weed control at 121.5 g/ha (Puccinia triticina; [4]) [%]	pest or weed control at 121.5 g/ha (Puccinia triticina; [5]) [%]
COc1ccnc(C(=O)N[C@H]2COC[C@H](CC3CCCCC3)[C@@H](CC3CCCCC3)[C@H](C)OC2=O)c1OCOC(C)=O [compound 10]	> 70	< 70	> 70	> 70	50 to 56	–	–	–	–
COc1ccnc(C(=O)N[C@H]2COC[C@H](Cc3ccc(Cl)cc3)[C@@H](Cc3ccc(OC(F)(F)F)cc3)[C@H](C)OC2=O)c1OCOC(C)=O [compound 58]	–	–	–	–	158 to 161	> 70	> 70	> 70	< 70
COc1ccnc(C(=O)N[C@H]2COC[C@H](Cc3ccc(C(F)(F)F)cc3)[C@@H](Cc3ccc(OC(F)(F)F)cc3)[C@H](C)OC2=O)c1OCOC(C)=O [compound 66]	–	–	–	–	57 to 60	> 70	> 70	> 70	> 70
COc1ccnc(C(=O)N[C@H]2COC[C@H](Cc3ccccc3)[C@@H](Cc3ccccc3)[C@@H](C)OC2=O)c1O [compound 111]	> 70	< 70	> 70	> 70	201 to 204	–	–	–	–
COc1ccnc(C(=O)N[C@H]2COC[C@H](Cc3ccccc3)[C@@H](COc3ccccc3)[C@H](C)OC2=O)c1OCOC(C)=O [compound 96]	–	–	–	–	56 to 61	> 70	> 70	> 70	< 70
COc1ccnc(C(=O)N[C@H]2COC[C@H](CC3CCCCC3)[C@@H](CC3CCCCC3)[C@H](C)OC2=O)c1O [compound 119]	> 70	< 70	> 70	> 70	69 to 75	–	–	–	–
C=C[C@@H]1[C@@H](Cc2ccccc2)COC[C@H](NC(=O)c2nccc(OC)c2OCOC(C)=O)C(=O)O[C@H]1C [compound 9]	> 70	> 70	> 70	> 70	42 to 48	–	–	–	–
COc1ccnc(C(=O)N[C@@H]2COC[C@@H](Cc3ccccc3)[C@H](COCC(C)C)[C@@H](C)OC2=O)c1OCOC(C)=O [compound 13]	> 70	> 70	> 70	> 70	44 to 48	> 70	> 70	> 70	> 70
COc1ccnc(C(=O)N[C@H]2COC[C@H](Cc3ccc(Cl)cc3)[C@@H](Cc3ccc(OC(F)(F)F)cc3)[C@H](C)OC2=O)c1OC(C)=O [compound 59]	–	–	–	–	80 to 85	< 70	< 70	< 70	< 70
COc1ccnc(C(=O)N[C@H]2COC[C@H](Cc3ccccc3)[C@@H](Cc3ccc(OC(F)(F)F)cc3)[C@H](C)OC2=O)c1O [compound 131]	> 70	> 70	> 70	> 70	63 to 69	–	–	–	–
COc1ccnc(C(=O)N[C@H]2COC[C@H](CC3CC3)[C@@H](Cc3ccccc3)[C@H](C)OC2=O)c1O [compound 140]	> 70	< 70	> 70	< 70	56 to 61	–	–	–	–
COc1ccnc(C(=O)N[C@H]2COC[C@H](CCc3ccccc3)[C@@H](CCc3ccccc3)[C@H](C)OC2=O)c1OCOC(C)=O [compound 4]	> 70	> 70	> 70	> 70	42 to 47	> 70	> 70	> 70	< 70
COc1ccnc(C(=O)N[C@H]2COC[C@H](CCC(C)C)[C@@H](C3CCCC3)[C@H](C)OC2=O)c1OCOC(C)=O [compound 93]	–	–	–	–	47 to 53	> 70	< 70	> 70	< 70
COc1ccnc(C(=O)N[C@H]2COC[C@H](Cc3ccc(C(F)(F)F)cc3)[C@@H](CC(C)C)[C@H](C)OC2=O)c1OCOC(C)=O [compound 71]	–	–	–	–	54 to 59	> 70	> 70	> 70	> 70
COc1ccnc(C(=O)N[C@H]2COC[C@H](CC3CC3)[C@@H](Cc3ccccc3)[C@H](C)OC2=O)c1OCOC(C)=O [compound 68]	–	–	–	–	41 to 45	> 70	< 70	> 70	< 70
COc1ccnc(C(=O)N[C@H]2COC[C@H](CCC(C)C)[C@@H](C3CCCC3)[C@H](C)OC2=O)c1O [compound 150]	> 70	> 70	> 70	> 70	38 to 43	–	–	–	–
COc1ccnc(C(=O)N[C@H]2COC[C@H](Cc3ccccc3)[C@@H](c3ccccc3)[C@H](C)OC2=O)c1O [compound 132]	> 70	> 70	> 70	> 70	185 to 190	–	–	–	–
COc1ccnc(C(=O)N[C@H]2COC[C@H](Cc3ccc(Cl)cc3)[C@@H](C3CCCC3)[C@H](C)OC2=O)c1O [compound 149]	> 70	> 70	> 70	> 70	80 to 84	–	–	–	–
COc1ccnc(C(=O)N[C@H]2COC[C@H](c3ccccc3)[C@@H](c3ccccc3)[C@H](C)OC2=O)c1O [compound 116]	> 70	< 70	> 70	> 70	64 to 72	–	–	–	–
CCC[C@H]1COC[C@H](NC(=O)c2nccc(OC)c2OC(C)=O)C(=O)O[C@@H](C)[C@@H]1Cc1ccc(F)cc1 [compound 107]	–	–	–	–	57 to 62	> 70	> 70	> 70	> 70
COc1ccnc(C(=O)N[C@H]2COC[C@H](Cc3ccc(Cl)cc3)[C@@H](C3CCCC3)[C@H](C)OC2=O)c1OCOC(=O)C(C)C [compound 89]	–	–	–	–	54 to 58	> 70	> 70	> 70	< 70
COc1ccnc(C(=O)N[C@H]2COC[C@H](Cc3ccc(Cl)cc3)[C@@H](C3CCCC3)[C@H](C)OC2=O)c1OCOC(C)=O [compound 88]	–	–	–	–	56 to 60	> 70	< 70	> 70	< 70
COc1cccc(C[C@H]2COC[C@H](NC(=O)c3nccc(OC)c3O)C(=O)O[C@@H](C)[C@@H]2Cc2cccc(OC)c2)c1 [compound 124]	< 70	< 70	> 70	< 70	62 to 65	–	–	–	–
COc1ccnc(C(=O)N[C@H]2COC[C@H](Cc3ccc(Cl)cc3)[C@@H](Cc3ccc(OC(F)(F)F)cc3)[C@H](C)OC2=O)c1O [compound 137]	< 70	> 70	> 70	< 70	64 to 68	–	–	–	–
COc1ccnc(C(=O)N[C@H]2COC[C@H](Cc3ccc(Cl)cc3)[C@@H](C3CCCC3)[C@H](C)OC2=O)c1OC(=O)C(C)C [compound 87]	–	–	–	–	73 to 77	> 70	> 70	> 70	< 70
COc1ccnc(C(=O)N[C@H]2COC[C@H](Cc3ccc(Cl)cc3)[C@@H](C3CCCC3)[C@H](C)OC2=O)c1OC(C)=O [compound 86]	–	–	–	–	85 to 89	> 70	> 70	> 70	> 70
